Laboratory results from patent publication US20260240846A1, “ZAK ALPHA KINASE (MAP3K20) INHIBITORS FOR USE IN THE TREATMENT OF ANEMIA” (UNIVERSIDAD DE MURCIA, priority 2023, published 2026).

Assays:
zebrafish larvae = assay: Chemical treatment of zebrafish larvae by bath immersion; counting of neutrophils and erythrocytes; assay type: in vivo, Zebrafish (Danio rerio H.)
Protocol: FIG. 3. ZAKα regulates hematopoiesis in zebrafish through the Nlrp1 inflammasome. Number of neutrophils (B, D, H), erythrocytes (F) and macrophages (J), and caspase-1 activity (K) in 2 dpf larvae either treated from 1 to 2 dpf by bath immersion with 1 μM nilotinib and/or 100 μM anisomycin (A-D) or obtained by injecting one-cell stage embryos with standard or zaka crRNAs/Cas9 complexes (E-K). Representative images of neutrophils (A, C, G), erythrocytes (E) and macrophages (I) are also shown. Each dot represents one individual and the mean±SEM for each group is also shown. P values were calculated using one-way ANOVA and Tukey's multiple range test (B) or Student's t-test (D, F, H, J, K). n.s., non-significant; *P<0.05; **P<0.01; ***P<0.001.
FIG. 6. NLRP1 is activated by phosphorylation of the linker domain after activation of ZAKα and pharmacological inhibition of this signaling pathway promotes erythropoiesis in DBA. (A-D) Number of neutrophils (A-C), and caspase-1 activity (D) in 2 dpf larvae obtained by injection of one-cell stage embryos with human NLRP1 (wild type-WT, S107A and S107D) and treated from 1 to 2 dpf by bath immersion with 1 μM nilotinib (B-D). Representative images of neutrophils (arrows) are also shown in C. (E, F) BMMCs from a DBA patient were incubated for 2 weeks in human methylcellulose complete medium at 37° C. in the presence or absence of the indicated concentrations of nilotinib, and colonies were counted using standard morphological criteria. Each dot represents one individual and the mean±SEM for each group is also shown. P values were calculated by one-way ANOVA and Tukey's multiple range test. n.s., non-significant; *P<0.05; **P<0.01; ***P<0.001; ****P<0.0001.
FIG. 10. Imatinib and dasatinib promote erythropoiesis in human and zebrafish. (A) K562 cells were pretreated with the indicated concentrations of nilotinib, imatinib or dasatinib for 24 h and then differentiated with 50 μM hemin for 24 h. The amounts of NLRP1, GATA1, phosphorylated P38, total ZAKα and ACTB were then evaluated by western blot. (B) Zebrafish larvae were treated from 1 to 2 dpf with the indicated concentrations of nilotinib, imatinib or dasatinib. Representative images and number of neutrophils in larvae of 2 dpf treated by bath immersion with the indicated concentrations of imatinib and dasatinib. Each dot represents one individual and the mean±SEM for each group is also shown. P values were calculated by one-way ANOVA and Tukey's multiple range test. n.s., non-significant. ***P<0.001; ****P<0.0001.
FIG. 11. Ponatinib and bosutinib promote erythropoiesis in human and zebrafish. (A) K562 cells were pretreated with the indicated concentrations of nilotinib, ponatinib and bosutinib for 24 h and then differentiated with 50 μM hemin for the indicated times. The amounts of NLRP1, total ZAKα, GATA1, phosphorylated P38 and ACTB were then evaluated by western blot. (B) Number of neutrophils in larvae of 2 dpf treated by bath immersion with the indicated concentrations of ponatinib and bosutinib. Each dot represents one individual and the mean±SEM for each group is also shown. P values were calculated by one-way ANOVA and Tukey's multiple range test. n.s., non-significant, *P<0.05. **P<0.01. ***P<0.001.
Zebrafish (Danio rerio H.) were obtained from the Zebrafish International Resource Center and mated, staged, raised and processed as described in The Zebarfish Book. The lines Tg(mpx:eGFP)^t114, Tg(lyz:DsRED2)^n250, Tg(mfap4:mCherry)^ump6, Tg(gata1a:DsRed)^sd2 Tg(runx1:GAL4)^utn6), Tg(UAS-E1B:NTR-mCherry) and casper (mitfa^w2/w2; mpv17^a9/a9) were previously described. spint1a^hi2217Tg/hi2217Tg was isolated from insertional mutagenesis screens. The experiments performed comply with the Guidelines of the European Union Council (Directive 2010/63/EU) and the Spanish RD 53/2013. The experiments and procedures performed were approved by the Bioethical Committees of the University of Murcia (approval number #669/2020). […]

[1] = tested on: primary CD34+/CD133+ HSPCs from healthy donors; assay: Erythroid differentiation of primary CD34+/CD133+ HSPCs with EPO (flow cytometry CD235a/CD71); assay type: cell-based, human; conditions: 0.1 μM nilotinib from 3 to 7 d or 7 to 10 d of culture
Protocol: (§1) FIG. 8. Nilotinib promotes erythropoiesis of primary CD34^+/CD133^+ HSPCs from healthy donors. (A) Primary human CD34^+/CD133^+ cells were differentiated with erythropoietin (EPO) and 0.1 μM nilotinib was added from 3 to 7 d of culture and the number of life cells calculated by the trypan blue exclusion assay. (B, C) Cells were stained with anti-CD235a-APC and anti-CD71-FITC, and erythroid differentiation was then analyzed by flow cytometry. Representative dot plots at different differentiation times (B) and overlapped histogram of CD235a at 7 d and the mean fluorescence intensity (MFI) at different differentiation times (C) are shown.
as §1, with “FIG. 9.” for “FIG. 8.”, “with EPO” for “with erythropoietin (EPO)”, “from 7” for “from 3”, “to 10” for “to 7”, “at 10” for “at 7”, “shown. […]” for “shown.”

Cc1cn(-c2cc(NC(=O)c3ccc(C)c(Nc4nccc(-c5cccnc5)n4)c3)cc(C(F)(F)F)c2)cn1 [nilotinib]
neutrophilia in the Spint1a-deficient model of neutrophilic inflammation (zebrafish larvae; larvae 2 dpf, bath immersion 1 to 2 dpf, 1 μM nilotinib): reduced neutrophilia
neutrophilia induced by NLRP1 with phosphomimetic S107D mutation (zebrafish larvae; larvae expressing human NLRP1 S107D, 1 μM nilotinib 1 to 2 dpf): failed to reverse
neutrophilia induced by wild type NLRP1 (zebrafish larvae; larvae expressing human wild type NLRP1, 1 μM nilotinib 1 to 2 dpf): able to abrogate
erythropoiesis in zebrafish (zebrafish larvae; nilotinib (FIGS. 3E and 3F)): Promote erythropoiesis in zebrafish
neutrophil number (zebrafish larvae; wild type larvae 2 dpf, bath immersion 1 to 2 dpf, 1 μM nilotinib, 100 μM anisomycin): caused a decrease in neutrophil number
erythropoiesis of primary CD34+/CD133+ HSPCs [1]: accelerated erythropoiesis
